pIC50: −log10 of the molar value.
Key:
[1] = Half life in mouse at 3 mg/kg, iv; assay type: ADME, organism-based; details: in vivo
[2] = Solubility of the compound; assay type: physicochemical
[3] = Cmax in mouse at 3 mg/kg, iv; assay type: ADME, organism-based; design: dose 3 mg/kg, route iv; details: in vivo
[4] = Cmax in mouse at 20 mg/kg, po; assay type: ADME, organism-based; design: dose 20 mg/kg, route po; details: in vivo
[5] = Tlast in mouse at 20 mg/kg, po; assay type: ADME, organism-based; details: in vivo
[6] = Oral bioavailability in mouse at 20 mg/kg; assay type: ADME, organism-based; details: in vivo
[7] = Clast in mouse at 20 mg/kg, po; assay type: ADME, organism-based; details: in vivo, read-out: Clast
Toll-like receptor 4 [8] = target: T1, Toll-like receptor 4 (Mus musculus, UniProt Q9QUK6); test: Antagonist activity at TLR4 in mouse Whole blood cell assessed as reduction in IL-6 level measured after 20 hrs by HTRF method; assay type: tissue-based
T1 sequence (Q9QUK6 whole entry): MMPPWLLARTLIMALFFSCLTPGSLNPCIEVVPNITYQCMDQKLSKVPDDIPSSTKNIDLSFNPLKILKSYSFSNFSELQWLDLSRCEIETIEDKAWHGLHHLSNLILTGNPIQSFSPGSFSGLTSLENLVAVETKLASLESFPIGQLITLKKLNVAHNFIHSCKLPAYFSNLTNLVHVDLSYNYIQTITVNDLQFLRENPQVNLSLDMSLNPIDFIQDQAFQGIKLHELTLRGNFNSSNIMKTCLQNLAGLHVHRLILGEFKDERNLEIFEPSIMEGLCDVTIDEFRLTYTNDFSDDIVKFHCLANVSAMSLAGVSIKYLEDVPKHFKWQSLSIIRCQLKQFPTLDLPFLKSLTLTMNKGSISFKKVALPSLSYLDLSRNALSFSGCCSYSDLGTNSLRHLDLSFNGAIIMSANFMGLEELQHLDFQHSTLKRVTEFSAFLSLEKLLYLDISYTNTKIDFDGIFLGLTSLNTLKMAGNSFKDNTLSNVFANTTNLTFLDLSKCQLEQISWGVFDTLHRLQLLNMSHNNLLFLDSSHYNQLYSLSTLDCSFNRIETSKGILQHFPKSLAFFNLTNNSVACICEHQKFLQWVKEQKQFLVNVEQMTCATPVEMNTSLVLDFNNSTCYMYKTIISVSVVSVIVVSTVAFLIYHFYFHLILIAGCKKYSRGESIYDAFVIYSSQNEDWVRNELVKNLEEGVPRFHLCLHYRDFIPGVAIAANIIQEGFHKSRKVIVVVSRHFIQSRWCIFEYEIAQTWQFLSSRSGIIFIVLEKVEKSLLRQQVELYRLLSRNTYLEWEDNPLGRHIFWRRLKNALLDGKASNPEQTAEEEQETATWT

[9] = target: Toll-like receptor 7 (Mus musculus) (UniProt P58681); test: In vivo antagonist activity against TLR7 in mouse assessed as suppression of IFN alpha level at 3 mg/kg, po measured at 3 hrs by LC-MS/MS analysis
[10] = target: Toll-like receptor 7 (Mus musculus) (UniProt P58681); test: In vivo antagonist activity against TLR7 in po dosed mouse assessed as suppression of TNF level measured at 3 hrs by LC-MS/MS analysis; details: dose 1-30 mg/kg
[11] = target: Toll-like receptor 7 (Mus musculus) (UniProt P58681); test: In vivo antagonist activity against TLR7 in po dosed mouse assessed as suppression of IL-6 level measured at 3 hrs by LC-MS/MS analysis; details: dose 1-30 mg/kg
[12] = target: Toll-like receptor 7 (Mus musculus) (UniProt P58681); test: In vivo antagonist activity against TLR7 in mouse assessed as suppression of IFN alpha level at 10 mg/kg, po measured at 3 hrs by LC-MS/MS analysis
[13] = target: Toll-like receptor 7 (Mus musculus) (UniProt P58681); test: In vivo antagonist activity against TLR7 in mouse assessed as inhibition of TNF level at 10 mg/kg, po measured after 2 hrs by LC-MS/MS analysis relative to control
Toll-like receptor 4 [14] = target: T1, Toll-like receptor 4; test: Antagonist activity at TLR4 in mouse Splenocyte assessed as reduction IL-6 level measured after 20 hrs by Spectramax M5 method; assay type: cell-based
Toll-like receptor 9 = target: T2, Toll-like receptor 9 (Homo sapiens, UniProt Q9NR96); test: Antagonist activity at TLR9 in human Whole blood cell assessed as reduction in IFN-alpha level measured after 30 mins; assay type: tissue-based
T2 sequence (Q9NR96 whole entry): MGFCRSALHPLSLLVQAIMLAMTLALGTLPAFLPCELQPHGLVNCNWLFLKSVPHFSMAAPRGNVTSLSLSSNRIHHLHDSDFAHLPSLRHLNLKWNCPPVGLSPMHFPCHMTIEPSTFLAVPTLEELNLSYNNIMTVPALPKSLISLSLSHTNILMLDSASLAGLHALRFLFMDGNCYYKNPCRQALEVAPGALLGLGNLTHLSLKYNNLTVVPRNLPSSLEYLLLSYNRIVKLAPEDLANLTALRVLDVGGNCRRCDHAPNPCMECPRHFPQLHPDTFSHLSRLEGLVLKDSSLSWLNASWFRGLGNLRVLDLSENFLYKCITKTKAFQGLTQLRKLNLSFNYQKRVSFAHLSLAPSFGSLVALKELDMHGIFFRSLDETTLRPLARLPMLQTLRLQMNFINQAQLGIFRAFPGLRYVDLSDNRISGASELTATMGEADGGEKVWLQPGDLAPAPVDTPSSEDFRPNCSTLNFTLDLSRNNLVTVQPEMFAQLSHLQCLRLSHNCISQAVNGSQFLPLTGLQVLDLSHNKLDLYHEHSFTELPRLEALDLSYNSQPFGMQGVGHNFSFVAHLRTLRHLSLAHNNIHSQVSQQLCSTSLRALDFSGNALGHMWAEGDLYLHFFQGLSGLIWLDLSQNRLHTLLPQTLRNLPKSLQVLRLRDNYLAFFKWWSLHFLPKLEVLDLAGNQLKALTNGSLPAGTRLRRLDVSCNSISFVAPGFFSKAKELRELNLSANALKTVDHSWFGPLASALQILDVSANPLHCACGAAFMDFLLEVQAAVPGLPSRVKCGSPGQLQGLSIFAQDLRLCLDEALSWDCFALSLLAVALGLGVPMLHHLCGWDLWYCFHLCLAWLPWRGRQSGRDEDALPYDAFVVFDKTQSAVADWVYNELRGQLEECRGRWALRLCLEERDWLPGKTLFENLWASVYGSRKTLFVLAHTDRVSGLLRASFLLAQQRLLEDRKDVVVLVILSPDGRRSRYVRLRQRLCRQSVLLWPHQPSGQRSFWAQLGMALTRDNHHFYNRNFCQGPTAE

[15] = target: Toll-like receptor 7 (Mus musculus) (UniProt P58681); test: In vivo antagonist activity against TLR7 in mouse assessed as suppression of IFN alpha level at 30 mg/kg, po measured at 3 hrs by LC-MS/MS analysis

SMILES	t1/2 [1]	solubility [2]	Cmax [3]	Cmax [4]	Tlast [5]	bioavailability [6]	concentration [7]	pIC50 (Toll-like receptor 4 [8])	Activity [9]	Activity [10]	Activity [11]	Activity [12]	inhibition in vivo at 10 mg/kg [13]	pIC50 (Toll-like receptor 4 [14])	pIC50 (Toll-like receptor 9)	Activity [15]
Cc1cc(N2CCc3c(c(C)nn3CC34CCC(N)(CC3)CC4)C2)c2cnn(C)c2n1	2.1 h	> 175 µM	321 nM	321 nM	7 h	4%	35 nM									
Cc1cc(N2CCc3c(c(C)nn3CC34CCC(NC(=O)[C@@H]5COCCN5)(CC3)CC4)C2)c2cnn(C)c2n1 [MHV-370]								< 5.00	141 ng/mL	Dose-Dependent Effect	Dose-Dependent Effect	550 ng/mL	~100%	< 5.00	5.92	1347 ng/mL

Reference: ChEMBL document CHEMBL5360657, “Discovery of the TLR7/8 Antagonist MHV370 for Treatment of Systemic Autoimmune Diseases” (ACS Med Chem Lett, 2023)
